# From patent US9676749B2, “Compositions and methods for cancer detection and treatment” (Ohio State Innovation Foundation, priority 2009, dated 2017)
# Entries after “also recorded” stand apart in the source; their conditions may differ. Like-named read-outs stand apart in the source and are kept apart here.
# How the values were obtained:
# [1] = system: symmetrical dimethylation (S2Me) of histone H4R3 in glioma cell line U1242; test: Symmetric dimethyl H4R3 (S2Me-H4R3) content in glioma/astrocytoma cell lines by confocal microscopy and flow cytometry; assay type: cell-based, human; settings: for S2Me-H4R3 in astrocytoma cell lines, single agent or combined: CMP5 at 25 uM, HDAC inhibitor TSA; for S2Me-H4R3 content, flow cytometric assay (FIG. 18): U1242 and U251, TSA (25 nM) and/or CMP5 (25 uM); for H4R3 symmetric 2Me arginine methylation (S2Me): U1242, 8 hour incubation, confocal microscopy
# Method: (§1) Confocal microscopy was used with mAbs specific for symmetrical dimethylation (S2Me) of histone H4R3. Positive control for loss of PRMT5 activity was provided by treatment of U1242 cells with a PRMT5-specific siRNA used in above experiments. (B) Cell proliferation was assessed in replicate cultures incubated in DMSO and compounds 1-8.
# Initial Screening experiments were performed utilizing monoclonal antibodies specific for H4R3 symmetric dimethyl arginine and confocal microscopy generated images evaluating H4R3 methylation. Controls included scrambled and SiRNA specific for PRMT5 to verify knockdown and loss of H4R3 methylation. […] Findings similar to PRMT5-specific SiRNA treatment.
# Recent work reported by Pal et al has shown that PRMT5 associates with SWI/SNF chromatin remodeling complexes along with other co-repressor molecules like HDAC2. […] We utilized a flow cytometric assay to evaluate symmetric dimethyl H4R3 (S2Me-H4R3) content and confocal microscopy to verify loss of methylation status.
# (§2) The biochemical association of PRMT5 and HDAC2 with repressive chromatin remodeling complexes and cooperative enzyme kinetics has been previously described. […] As a control, we utilized a flow cytometric assay to evaluate symmetric dimethyl H4R3 (S2Me-H4R3, FIG. 18) content and confocal microscopy (not shown) to verify decrease of methylation status. We used Aimexin V/PI staining and flow cytometry to examine apoptosis (below). […] We are presently performing dose response experiments to examine whether this activity can be improved. In data not shown, we can achieve similar results with lower doses of CMP5 (10 uM). […] Inhibition PRMT5 with CMP5 and HDAC enzymes (at 10 fold lower concentrations) leads to synergistic induction of apoptosis of astrocytoma cell lines.
# [2] = system: U1242 cell line; test: Cell proliferation of GBM cells; assay type: cell-based, human; settings: for cell proliferation / anti proliferative activity: GBM cells (U1242), vs DMSO control
# Method: as §1
# Preliminary enzymatic activity assays are currently underway and will be provided as an update during submission of supplementary materials.
# [3] = system: astrocytoma cell lines (U1242 and U251); test: Apoptosis of GBM/astrocytoma cell lines (Annexin V/PI, flow cytometry); assay type: cell-based, human; settings: single agents, not shown
# Description: (B) inhibition of migration at 12 hrs after addition of siRNA to knock down PRMT5 vs. Scramble siRNA control.
# as §2
# [4] = target: T1, purified PRMT5 (Homo sapiens, UniProt O14744); settings: 100-500 uM CMP5, H4 substrate, 3H-SAM, 3 h at 37 C; ±7.8%, p<0.001, data not shown
# T1 sequence (O14744 whole entry): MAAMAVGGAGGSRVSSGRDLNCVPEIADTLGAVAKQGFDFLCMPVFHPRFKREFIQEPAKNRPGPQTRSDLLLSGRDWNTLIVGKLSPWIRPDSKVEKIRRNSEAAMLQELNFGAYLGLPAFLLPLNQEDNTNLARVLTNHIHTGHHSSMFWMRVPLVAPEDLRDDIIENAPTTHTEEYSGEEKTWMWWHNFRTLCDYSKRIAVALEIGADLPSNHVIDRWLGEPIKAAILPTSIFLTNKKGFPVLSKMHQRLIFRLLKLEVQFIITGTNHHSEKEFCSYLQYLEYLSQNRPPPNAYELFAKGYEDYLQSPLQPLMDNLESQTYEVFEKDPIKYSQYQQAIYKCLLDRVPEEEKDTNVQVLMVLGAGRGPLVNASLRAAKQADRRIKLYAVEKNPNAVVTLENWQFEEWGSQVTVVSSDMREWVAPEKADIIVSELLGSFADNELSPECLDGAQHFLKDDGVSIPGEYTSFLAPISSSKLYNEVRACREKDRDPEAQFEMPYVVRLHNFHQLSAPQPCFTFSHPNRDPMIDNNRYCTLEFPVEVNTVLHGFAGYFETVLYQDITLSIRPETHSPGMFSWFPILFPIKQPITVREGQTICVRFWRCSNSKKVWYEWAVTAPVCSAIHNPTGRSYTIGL
# T1 sequence (Q9BQA1 whole entry partner): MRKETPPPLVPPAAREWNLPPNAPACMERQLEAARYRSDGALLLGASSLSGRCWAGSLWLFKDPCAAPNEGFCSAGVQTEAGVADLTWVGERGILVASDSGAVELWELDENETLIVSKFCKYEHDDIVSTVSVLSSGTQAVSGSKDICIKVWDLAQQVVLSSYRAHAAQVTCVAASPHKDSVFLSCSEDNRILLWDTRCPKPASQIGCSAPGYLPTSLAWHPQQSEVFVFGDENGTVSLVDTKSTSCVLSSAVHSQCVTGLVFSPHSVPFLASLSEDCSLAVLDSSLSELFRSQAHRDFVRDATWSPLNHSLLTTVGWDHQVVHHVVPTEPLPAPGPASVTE
# Method: The next step required studies to explore whether CMP5 was capable of selectively inhibiting a type II PRMT enzyme. Type I PRMT enzymes are involved in transcriptional activation (asymmetric dimethylation at H4R3) and type II PRMT enzymes regulates transcriptional repression (symmetric dimethylation or S2Mc at H4R3). To achieve this goal, we performed enzyme inhibition assays using purified PRMT1 (type I PRMT enz) and purified PRMT5 (type II PRMT enz). Assays were performed utilizing 2 methods. The first utilized methods described previously by Zhao et at (Nat Struct Mol Biol. 2009), where 1 ug of H4 (Roche) was used as substrate and 2 uCi of S-adenosyl-L-methyl-^3H-methionine (^3H-SAM; Amersham) as the methyl donor in the presence or absence of 100-500 uM of CMP5 was incubated in HMTase buffer for 3 h at 37° C. Reaction mixtures were spotted on Whatman P-81 filter paper and washed to remove unincorporated [^3H]SAM. Methylated peptides were detected by scintillation counting. […] The second method utilized a methyltransferase activity assay to distinguish if differential inhibitory activity of CMP5 existed against the type I PRMT1 vs. the type II enzyme PRMT. […] Fluorescently labeled SAM tracer was added followed by anti-SAM antibody that produces a change in fluorescent polarization that can be measured using a fluorescence reader.
# [5] = target: purified PRMT1 (Homo sapiens, UniProt Q99873); settings: 100-500 uM, one hour at 37 C, 3 replicate experiments, p<0.0001
# purified PRMT1, sequence (Q99873 whole entry, species assumed): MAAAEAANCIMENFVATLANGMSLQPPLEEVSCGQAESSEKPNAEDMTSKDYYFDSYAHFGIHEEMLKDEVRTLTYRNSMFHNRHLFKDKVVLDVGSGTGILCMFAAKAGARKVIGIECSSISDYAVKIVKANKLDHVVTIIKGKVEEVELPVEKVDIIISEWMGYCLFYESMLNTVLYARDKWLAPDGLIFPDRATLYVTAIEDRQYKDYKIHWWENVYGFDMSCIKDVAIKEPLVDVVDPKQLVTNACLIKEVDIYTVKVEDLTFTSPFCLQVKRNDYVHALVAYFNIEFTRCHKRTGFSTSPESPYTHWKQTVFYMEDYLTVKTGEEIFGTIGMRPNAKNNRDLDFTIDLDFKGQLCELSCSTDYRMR
# Description: (§3) Do achieve this, we performed enzyme inhibition assays using purified PRMT1 (a type I PRMT enzyme) and purified PRMT5 (a type II PRMT enzyme).
# (§4) The next step required studies to explore whether CMP5 was capable of selectively inhibiting a type II PRMT enzyme. Type I PRMT enzymes are involved in transcriptional activation (asymmetric dimethylation at H4R3) and type II PRMT enzymes regulates transcriptional repression (symmetric dimethylation or S2Mc at H4R3). To achieve this goal, we performed enzyme inhibition assays using purified PRMT1 (type I PRMT enz) and purified PRMT5 (type II PRMT enz). Assays were performed utilizing 2 methods. The first utilized methods described previously by Zhao et at (Nat Struct Mol Biol. 2009), where 1 ug of H4 (Roche) was used as substrate and 2 uCi of S-adenosyl-L-methyl-^3H-methionine (^3H-SAM; Amersham) as the methyl donor in the presence or absence of 100-500 uM of CMP5 was incubated in HMTase buffer for 3 h at 37° C. Reaction mixtures were spotted on Whatman P-81 filter paper and washed to remove unincorporated [^3H]SAM. Methylated peptides were detected by scintillation counting. […] The second method utilized a methyltransferase activity assay to distinguish if differential inhibitory activity of CMP5 existed against the type I PRMT1 vs. the type II enzyme PRMT. The methyltransferase assay we used (Amsbio inc) utilized purified PRMT5 and PRMT1 enzyme preparations and tested for methylation of Histone H4 at arginine 3 (H4R3). SAM was incubated with a sample containing substrate H4 peptide, different concentrations of methyltransferase enzymes (PRMT5 or PRMT1), in presence or absence of CMP5 (100-500 uM) for one hour at 37° C. Fluorescently labeled SAM tracer was added followed by anti-SAM antibody that produces a change in fluorescent polarization that can be measured using a fluorescence reader.
# [6] = target: T1, purified PRMT5
# Description: as §3, §4
# [7] = target: human pure PRMT5 enzyme (Homo sapiens, UniProt O14744); test: In vitro methylation assay; assay type: biochemical; settings: FIG. 21 left
# human pure PRMT5 enzyme, sequence (O14744 whole entry): as the sequence (O14744 whole entry) above
# human pure PRMT5 enzyme, sequence (Q9BQA1 whole entry partner): as the sequence (Q9BQA1 whole entry partner) above
# Method: SAM was omitted for the substrate control, and human pure PRMT5 enzyme was omitted for blank control. (right) Jeko and Mino cells were treated by 10 uM of BLL36 for 24 hr, viability was evaluated by flow cytometry.
# [8] = compound 5 at 20, 30, 40, 50 and 100 uM, 48 hours
SMILES,"S2Me-H4R3 in astrocytoma cell lines, single agent or combined [1]","S2Me-H4R3 content, flow cytometric assay (FIG. 18) [1]","concentration of compound 5 giving loss of S2Me status of H4R3 on co-treatment with HDACi TSA ([1]; GBM cell lines, co-treated with TSA) [µM]","fold lower concentration of compound 5 for loss of S2Me H4R3 on co-treatment with TSA ([1]; GBM cell lines, co-treated with TSA (75, 100 nM)) [fold]",H4R3 symmetric 2Me arginine methylation (S2Me) [1],H4R3 symmetric 2Me arginine methylation (S2Me) ([1]; listed as CMP5),"degree of H4R3 methylation, titration [1, 8]","concentration of CMP5 required for reduced methylation, single agent ([1]; original dose response experiments) [µM]",cell proliferation / anti proliferative activity [2],cell proliferation / anti proliferative activity ([2]; listed as CMP5),"cellular proliferation (absolute cell numbers), titration [2, 8]",apoptosis of GBM cell lines [3],reduction of methyltransferase activity [4] [%],inhibition of PRMT1 activity [5],inhibition of PRMT1 activity ([5]; listed as CMP5),"inhibition of PRMT5 activity ([6]; 100-500 uM, one hour at 37 C, 3 replicate experiments, p<0.0001)",IC50 ([6]; lead compound of the initial screen),concentration that decreased methyltransferase activity of PRMT5 [7] [µM]
"CC(/C=C/C(=O)NO)=C\[C@@H](C)C(=O)c1ccc(N(C)C)cc1 [TSA, Trichostatin A, reference compound]",unchanged,no change in S2Me-H4R3,–,–,–,–,–,–,–,–,–,–,–,–,–,–,–,–
CCn1c2ccccc2c2cc(CNCc3ccccn3)ccc21 [Compound 5],unchanged,no change in S2Me-H4R3,10,> 10,most efficacy; also recorded: best activity; also recorded: reduced; also recorded: capable of inhibiting H4R3 symmetric 2Me arginine methylation,loss of symmetric dimethyl-H4R3,a dose response was seen,100,most efficacy; also recorded: reduced cell proliferation,antiproliferative effect,a dose response was seen,promote apoptosis of GBM cell lines,55,not PRMT1 activity,not PRMT1 enzymatic activity,selectively inhibiting PRMT5 activity,micromolar (uM) ranges,100
